Assay results published in ChEMBL document CHEMBL4138123, “Design, synthesis and biological evaluation of novel pyrazolochalcones as potential modulators of PI3K/Akt/mTOR pathway and inducers of apoptosis in breast cancer cells” (Eur J Med Chem, 2017).

How the values were obtained:
Format in all cases: functional
HCC 2998 [1] = assay: Cytotoxicity against human HCC2998 cells assessed as growth inhibition after 48 hrs by sulforhodamine B assay; details: HCC 2998, 48 h
SW-620 [2] = assay: Cytotoxicity against human SW620 cells assessed as growth inhibition after 48 hrs by sulforhodamine B assay; details: SW-620, 48 h
LOX IMVI = assay: Cytotoxicity against human LOXIMVI cells assessed as growth inhibition after 48 hrs by sulforhodamine B assay
MDA-MB-435 = assay: Cytotoxicity against human MDA-MB-435 cells assessed as growth inhibition after 48 hrs by sulforhodamine B assay; details: MDA-MB-435, 48 h
NCI/ADR-RES [3] = assay: Cytotoxicity against human NCI/ADR-RES cells assessed as growth inhibition after 48 hrs by sulforhodamine B assay
A498 [4] = assay: Cytotoxicity against human A498 cells assessed as growth inhibition after 48 hrs by sulforhodamine B assay; details: A498, 48 h
SN12C [5] = assay: Cytotoxicity against human SN12C cells assessed as growth inhibition after 48 hrs by sulforhodamine B assay
MCF7 [6] = assay: Cytotoxicity against human MCF7 cells assessed as growth inhibition after 48 hrs by sulforhodamine B assay; details: MCF7, 48 h
Hs-578T [7] = assay: Cytotoxicity against human Hs 578T cells assessed as growth inhibition after 48 hrs by sulforhodamine B assay
T47D [8] = assay: Cytotoxicity against human T47D cells assessed as growth inhibition after 48 hrs by sulforhodamine B assay
OVCAR-4 = assay: Cytotoxicity against human OVCAR4 cells assessed as cell growth at 0.01 uM after 48 hrs by sulforhodamine B assay relative to control; details: OVCAR-4, 48 h, read-out: Activity
HCT-116 [9] = assay: Cytotoxicity against human HCT116 cells assessed as cell growth at 0.01 uM after 48 hrs by sulforhodamine B assay relative to control; details: HCT-116, 48 h, read-out: Activity
HOP-62 [10] = assay: Cytotoxicity against human HOP62 cells assessed as cell growth at 0.01 uM after 48 hrs by sulforhodamine B assay relative to control; details: HOP-62, 48 h, read-out: Activity
SN12C [11] = assay: Cytotoxicity against human SN12C cells assessed as cell growth at 0.01 uM after 48 hrs by sulforhodamine B assay relative to control; details: read-out: Activity
MDA-MB-231 = assay: Cytotoxicity against human MDA-MB-231 cells assessed as cell growth at 0.01 uM after 48 hrs by sulforhodamine B assay relative to control; details: MDA-MB-231, 48 h, read-out: Activity
CCRF-CEM = assay: Cytotoxicity against human CCRF-CEM cells assessed as cell growth at 0.1 uM after 48 hrs by sulforhodamine B assay relative to control; details: read-out: Activity
NCI-H322M [12] = assay: Cytotoxicity against human NCI-H322M cells assessed as cell growth at 0.1 uM after 48 hrs by sulforhodamine B assay relative to control; details: read-out: Activity
SNB-19 = assay: Cytotoxicity against human SNB19 cells assessed as cell growth at 0.1 uM after 48 hrs by sulforhodamine B assay relative to control; details: SNB-19, 48 h, read-out: Activity
A498 [13] = assay: Cytotoxicity against human A498 cells assessed as cell growth at 0.1 uM after 48 hrs by sulforhodamine B assay relative to control; details: A498, 48 h, read-out: Activity
HOP-62 [14] = assay: Cytotoxicity against human HOP62 cells assessed as cell growth at 1 uM after 48 hrs by sulforhodamine B assay relative to control; details: HOP-62, 48 h, read-out: Activity
NCI-H226 = assay: Cytotoxicity against human NCI-H226 cells assessed as cell growth at 1 uM after 48 hrs by sulforhodamine B assay relative to control; details: NCI-H226, 48 h, read-out: Activity
HCC 2998 [15] = assay: Cytotoxicity against human HCC2998 cells assessed as cell growth at 1 uM after 48 hrs by sulforhodamine B assay relative to control; details: HCC 2998, 48 h, read-out: Activity
OVCAR-5 = assay: Cytotoxicity against human OVCAR5 cells assessed as cell growth at 1 uM after 48 hrs by sulforhodamine B assay relative to control; details: OVCAR-5, 48 h, read-out: Activity
NCI/ADR-RES [16] = assay: Cytotoxicity against human NCI/ADR-RES cells assessed as cell growth at 1 uM after 48 hrs by sulforhodamine B assay relative to control; details: read-out: Activity
PC-3 = assay: Cytotoxicity against human PC3 cells assessed as cell growth at 1 uM after 48 hrs by sulforhodamine B assay relative to control; details: PC-3, 48 h, read-out: Activity
T47D [17] = assay: Cytotoxicity against human T47D cells assessed as cell growth at 1 uM after 48 hrs by sulforhodamine B assay relative to control; details: read-out: Activity
HCT-116 [18] = assay: Cytotoxicity against human HCT116 cells assessed as cell growth at 10 uM after 48 hrs by sulforhodamine B assay relative to control; details: HCT-116, 48 h, read-out: Activity
HCT-15 [19] = assay: Cytotoxicity against human HCT15 cells assessed as cell growth at 10 uM after 48 hrs by sulforhodamine B assay relative to control; details: HCT-15, 48 h, read-out: Activity
SW-620 [20] = assay: Cytotoxicity against human SW620 cells assessed as cell growth at 10 uM after 48 hrs by sulforhodamine B assay relative to control; details: SW-620, 48 h, read-out: Activity
SK-MEL-5 = assay: Cytotoxicity against human SK-MEL-5 cells assessed as cell growth at 10 uM after 48 hrs by sulforhodamine B assay relative to control; details: SK-MEL-5, 48 h, read-out: Activity
786-0 = assay: Cytotoxicity against human 786-0 cells assessed as cell growth at 10 uM after 48 hrs by sulforhodamine B assay relative to control; details: 786-0, 48 h, read-out: Activity
NCI-H322M [21] = assay: Cytotoxicity against human NCI-H322M cells assessed as cell growth at 100 uM after 48 hrs by sulforhodamine B assay relative to control; details: read-out: Activity
HCT-15 [22] = assay: Cytotoxicity against human HCT15 cells assessed as cell growth at 100 uM after 48 hrs by sulforhodamine B assay relative to control; details: HCT-15, 48 h, read-out: Activity
UACC-62 = assay: Cytotoxicity against human UACC62 cells assessed as cell growth at 100 uM after 48 hrs by sulforhodamine B assay relative to control; details: UACC-62, 48 h, read-out: Activity
A498 [23] = assay: Cytotoxicity against human A498 cells assessed as cell growth at 100 uM after 48 hrs by sulforhodamine B assay relative to control; details: A498, 48 h, read-out: Activity
MCF7 [24] = assay: Cytotoxicity against human MCF7 cells assessed as cell growth at 100 uM after 48 hrs by sulforhodamine B assay relative to control; details: MCF7, 48 h, read-out: Activity
Hs-578T [25] = assay: Cytotoxicity against human Hs 578T cells assessed as cell growth at 100 uM after 48 hrs by sulforhodamine B assay relative to control; details: read-out: Activity

## COc1ccc(-c2cc(/C=C/C(=O)c3cc(OC)c(OC)c(OC)c3)[nH]n2)cc1OC
HCC 2998 [1]
  GI50: 1.9 µM
  LC50: 6.09 µM
  TGI: 3.4 µM
SW-620 [2]
  GI50: 1.5 µM
  LC50 (lethal concentration, 50% net cell kill): > 100 µM
  TGI: 4.16 µM
LOX IMVI
  GI50: 1.46 µM
  LC50: 5.7 µM
  TGI: 2.88 µM
MDA-MB-435
  GI50: 1.78 µM
  LC50: 9.2 µM
  TGI: 4.05 µM
NCI/ADR-RES [3]
  GI50: 2.69 µM
  LC50: > 100 µM
  TGI: 37 µM
A498 [4]
  GI50: 1.46 µM
  LC50: 22.3 µM
  TGI: 4.99 µM
SN12C [5]
  GI50: 1.77 µM
  LC50: 8.26 µM
  TGI: 3.83 µM
MCF7 [6]
  GI50: 1.06 µM
  TGI: 2.5 µM
Hs-578T [7]
  GI50: 2.91 µM
  LC50: > 100 µM
  TGI: 22.1 µM
T47D [8]
  GI50: 1.01 µM
  LC50: > 100 µM
  TGI: 3.76 µM
OVCAR-4
  growth at 0.01 µM: 94%
HCT-116 [9]
  growth at 0.01 µM: 100%
HOP-62 [10]
  growth at 0.01 µM: 92%
SN12C [11]
  growth at 0.01 µM: 98%
MDA-MB-231
  growth at 0.01 µM: 98%
CCRF-CEM
  growth at 0.1 µM: 91%
NCI-H322M [12]
  growth at 0.1 µM: 88%
SNB-19
  growth at 0.1 µM: 92%
A498 [13]
  growth at 0.1 µM: 89%
HOP-62 [14]
  growth at 1 µM: 71%
NCI-H226
  growth at 1 µM: 73%
HCC 2998 [15]
  growth at 1 µM: 105%
OVCAR-5
  growth at 1 µM: 81%
NCI/ADR-RES [16]
  growth at 1 µM: 81%
PC-3
  growth at 1 µM: 71%
T47D [17]
  growth at 1 µM: 51%
HCT-116 [18]
  growth at 10 µM: -81%
HCT-15 [19]
  growth at 10 µM: -41%
SW-620 [20]
  growth at 10 µM: -43%
SK-MEL-5
  growth at 10 µM: -99%
786-0
  growth at 10 µM: -94%
NCI-H322M [21]
  growth at 100 µM: -91%
HCT-15 [22]
  growth at 100 µM: -49%
UACC-62
  growth at 100 µM: -80%
A498 [23]
  growth at 100 µM: -91%
MCF7 [24]
  growth at 100 µM: -43%
Hs-578T [25]
  growth at 100 µM: -16%

## COc1ccc(C(=O)/C=C/c2cc(-c3cc(OC)c(OC)c(OC)c3)n[nH]2)cc1
HCC 2998 [1]
  LC50: 6.48 µM
  TGI: 3.4 µM
SW-620 [2]
  TGI: 3.47 µM
LOX IMVI
  TGI: 3.02 µM
MDA-MB-435
  LC50: > 100 µM
  TGI: 5.69 µM
NCI/ADR-RES [3]
  LC50: > 100 µM
  TGI: 9.85 µM
A498 [4]
  TGI: 3.94 µM
MCF7 [6]
  LC50: 7.61 µM
  TGI: 2.96 µM
Hs-578T [7]
  LC50: > 100 µM
  TGI: > 100 µM
T47D [8]
  LC50: > 100 µM
  TGI: 13 µM
OVCAR-4
  growth at 0.01 µM: 91%
HCT-116 [9]
  growth at 0.01 µM: 100%
HOP-62 [10]
  growth at 0.01 µM: 99%
SN12C [11]
  growth at 0.01 µM: 99%
MDA-MB-231
  growth at 0.01 µM: 104%
CCRF-CEM
  growth at 0.1 µM: 98%
NCI-H322M [12]
  growth at 0.1 µM: 96%
SNB-19
  growth at 0.1 µM: 88%
A498 [13]
  growth at 0.1 µM: 87%
HOP-62 [14]
  growth at 1 µM: 87%
NCI-H226
  growth at 1 µM: 92%
HCC 2998 [15]
  growth at 1 µM: 94%
OVCAR-5
  growth at 1 µM: 95%
NCI/ADR-RES [16]
  growth at 1 µM: 90%
PC-3
  growth at 1 µM: 76%
T47D [17]
  growth at 1 µM: 78%
HCT-116 [18]
  growth at 10 µM: -22%
HCT-15 [19]
  growth at 10 µM: -41%
SW-620 [20]
  growth at 10 µM: -69%
SK-MEL-5
  growth at 10 µM: -89%
786-0
  growth at 10 µM: -59%
NCI-H322M [21]
  growth at 100 µM: -31%
HCT-15 [22]
  growth at 100 µM: -33%
UACC-62
  growth at 100 µM: -48%
A498 [23]
  growth at 100 µM: -34%
MCF7 [24]
  growth at 100 µM: -69%
Hs-578T [25]
  growth at 100 µM: 5%
